Literature values, collected in US20160280572A1, “POLYMERS FOR FLOCCULATION, DEWATERING AND CONSOLIDATION OF OIL SANDS FLUID FINE TAILINGS, MINE TAILINGS AND SOLID PARTICULATE SUSPENSIONS” (THE GOVERNORS OF THE UNIVERSITY OF ALBERTA, priority 2015, published 2016).
Values after ≈ are worked out from the molar mass of the structure shown.

Details: in water, 20 Celsius

Structure (SMILES)	Solubility
C=CC(=O)OC [methyl acrylate]	60 mg/mL (≈ 697 mM)
C=COC(C)=O [vinyl acetate]	25 mg/mL
C=Cc1ccccc1 [styrene]	0.3 mg/mL (≈ 2.88 mM)
C=C(C)C(N)=O [Methacrylamide]	202 mg/mL (≈ 2370 mM)
C=C(C)C(=O)OC [methyl methacrylate]	16 mg/mL (≈ 160 mM)
C=CC#N [Acrylonitrile]	70 mg/mL (≈ 1320 mM)

Same assay, conditions: in water, temperature Not Listed

Structure (SMILES)	Solubility
C=C(C)C(=O)OCCCC [butyl methacrylate]	6 mg/mL (≈ 42.2 mM)
